# Patent publication US9074014B2 (Ipsen Pharma S.A.S., priority 2008, dated 2015)
# Where a SMILES comes first, the peptide text is derived from it. Where no end group is shown, it is not given here. [ ]: non-standard residue; d: D form. The star is where a group is joined. Ac6c = NC1(C(=O)O)CCCCC1; X1 = CCCN1C(=O)CC(*)C1=O; Ac5c = NC1(C(=O)O)CCCC1; Aib = CC(C)(N)C(=O)O
# What was measured:
# [1] = Rat plasma half-life assay; format: in vitro ADME; conditions: rat plasma, 37° C., LC-MS; read-out: Rat Plasma T½ (converted)
# Description: (§1) B. Human and Rat Plasma Half-Life Assay
# (§2) 50 μL was removed at various times, like at 0, 1, 2, 3, 4, 8, 24, 32, 48, 56, 72 hours, mixed with 5 μL formic acid and 150 μL acetonitrile in a microcentrifuge tube, vertexed, and centrifuged for 10 minutes at 10K rpm. The supernatant was transferred to an injection vial and analyzed by LC-MS. The LC-MS system consisted of an API4000 mass spectrometer with an ESI probe. Positive ion mode and full scan detection were used. HPLC separation was carried out on a Luna 3μ C8 (2), 2×30 mm column with a gradient from 90% A to 90% B in 10 minutes at a flow rate of 0.3 ml/min. Buffer A was 1% formic acid in water and buffer B was 1% formic acid acetonitrile.
# [2] = Human plasma half-life assay; format: in vitro ADME; conditions: human plasma, 37° C., LC-MS; read-out: Human Plasma T½ (converted)
# Description: as §1, §2
Compound,half-life at 0.1 mg/ml [1],half-life at 0.1 mg/ml [2]
"CC[C@H](C)[C@H](NC(=O)[C@H](CO)NC(=O)[C@H](Cc1ccc(O)cc1)NC(=O)[C@H](CC(=O)O)NC(=O)[C@H](CO)NC(=O)[C@@H](NC(=O)[C@H](Cc1ccccc1)NC(=O)C1(NC(=O)CNC(=O)[C@H](CCC(=O)O)NC(=O)C(C)(C)NC(=O)[C@@H](N)Cc2ccc(O)cc2)CCCC1)[C@@H](C)CC)C(=O)N[C@@H](C)C(=O)N[C@@H](CCSC)C(=O)N[C@@H](CC(=O)O)C(=O)N[C@@H](CCCCN)C(=O)N[C@H](C(=O)N[C@@H](Cc1c[nH]cn1)C(=O)N[C@@H](CCC(N)=O)C(=O)N[C@@H](CCC(N)=O)C(=O)N[C@@H](CC(=O)O)C(=O)N[C@@H](Cc1ccccc1)C(=O)N[C@H](C(=O)N[C@@H](CC(N)=O)C(=O)N[C@@H](Cc1c[nH]c2ccccc12)C(=O)N[C@@H](CC(C)C)C(=O)N[C@@H](CC(C)C)C(=O)N[C@@H](C)C(=O)N[C@@H](CCC(N)=O)C(=O)N[C@@H](CCCCN)C(N)=O)C(C)C)[C@@H](C)CC [Example 11, (Aib^2, A5c^5)hGIP(1-30)-NH2]",> 48 h,44.4 h
"CC[C@H](C)[C@H](NC(=O)[C@H](CO)NC(=O)[C@H](Cc1ccc(O)cc1)NC(=O)[C@H](CC(=O)O)NC(=O)[C@H](CO)NC(=O)C1(NC(=O)[C@H](Cc2ccccc2)NC(=O)[C@@H](NC(=O)CNC(=O)[C@H](CCC(=O)O)NC(=O)C(C)(C)NC(=O)[C@@H](N)Cc2ccc(O)cc2)[C@@H](C)O)CCCC1)C(=O)N[C@@H](C)C(=O)N[C@@H](CCSC)C(=O)N[C@@H](CC(=O)O)C(=O)N[C@@H](CCCCN)C(=O)N[C@H](C(=O)N[C@@H](Cc1c[nH]cn1)C(=O)N[C@@H](CCC(N)=O)C(=O)N[C@@H](CCC(N)=O)C(=O)N[C@@H](CC(=O)O)C(=O)N[C@@H](Cc1ccccc1)C(=O)N[C@H](C(=O)N[C@@H](CC(N)=O)C(=O)N[C@@H](Cc1c[nH]c2ccccc12)C(=O)N[C@@H](CC(C)C)C(=O)N[C@@H](CC(C)C)C(=O)N[C@@H](C)C(=O)N[C@@H](CCC(N)=O)C(=O)N[C@@H](CCCCN)C(N)=O)C(C)C)[C@@H](C)CC [Example 12, (Aib^2, A5c^7)hGIP(1-30)-NH2]",> 48 h,20.5 h
"CC[C@H](C)[C@H](NC(=O)[C@H](CCCCN)NC(=O)[C@H](CC(=O)O)NC(=O)[C@H](CCSC)NC(=O)[C@H](C)NC(=O)C1(NC(=O)[C@H](CO)NC(=O)[C@H](Cc2ccc(O)cc2)NC(=O)[C@H](CC(=O)O)NC(=O)[C@H](CO)NC(=O)[C@@H](NC(=O)[C@H](Cc2ccccc2)NC(=O)[C@@H](NC(=O)CNC(=O)[C@H](CCC(=O)O)NC(=O)C(C)(C)NC(=O)[C@@H](N)Cc2ccc(O)cc2)[C@@H](C)O)[C@@H](C)CC)CCCC1)C(=O)N[C@@H](Cc1c[nH]cn1)C(=O)N[C@@H](CCC(N)=O)C(=O)N[C@@H](CCC(N)=O)C(=O)N[C@@H](CC(=O)O)C(=O)N[C@@H](Cc1ccccc1)C(=O)N[C@H](C(=O)N[C@@H](CC(N)=O)C(=O)N[C@@H](Cc1c[nH]c2ccccc12)C(=O)N[C@@H](CC(C)C)C(=O)N[C@@H](CC(C)C)C(=O)N[C@@H](C)C(=O)N[C@@H](CCC(N)=O)C(=O)N[C@@H](CCCCN)C(N)=O)C(C)C [Example 13, (Aib^2, A5c^12)hGIP(1-30)-NH2] (H-Y[Aib]EGTFISDYS[Ac5c]AMDKIHQQDFVNWLLAQK-NH2; N-terminus assumed)",> 48 h,35.4 h
"CC[C@H](C)[C@H](NC(=O)[C@H](CO)NC(=O)[C@H](Cc1ccc(O)cc1)NC(=O)[C@H](CC(=O)O)NC(=O)[C@H](CO)NC(=O)[C@@H](NC(=O)[C@H](Cc1ccccc1)NC(=O)[C@@H](NC(=O)C(C)(C)NC(=O)[C@H](CCC(=O)O)NC(=O)C(C)(C)NC(=O)[C@@H](N)Cc1ccc(O)cc1)[C@@H](C)O)[C@@H](C)CC)C(=O)N[C@@H](C)C(=O)N[C@@H](CCSC)C(=O)N[C@@H](CC(=O)O)C(=O)N[C@@H](CCCCN)C(=O)N[C@H](C(=O)N[C@@H](Cc1c[nH]cn1)C(=O)N[C@@H](CCC(N)=O)C(=O)N[C@@H](CCC(N)=O)C(=O)N[C@@H](CC(=O)O)C(=O)N[C@@H](Cc1ccccc1)C(=O)N[C@H](C(=O)N[C@@H](CC(N)=O)C(=O)N[C@@H](Cc1c[nH]c2ccccc12)C(=O)N[C@@H](CC(C)C)C(=O)N[C@@H](CC(C)C)C(=O)N[C@@H](C)C(=O)N[C@@H](CCC(N)=O)C(=O)N[C@@H](CCCCN)C(N)=O)C(C)C)[C@@H](C)CC [Example 14, (Aib^2, 4)hGIP(1-30)-NH2]",48 h,34.8 h
"CC[C@H](C)[C@H](NC(=O)[C@H](CO)NC(=O)[C@H](Cc1ccc(O)cc1)NC(=O)[C@H](CC(=O)O)NC(=O)[C@H](CO)NC(=O)[C@@H](NC(=O)[C@H](Cc1ccccc1)NC(=O)C(C)(C)NC(=O)CNC(=O)[C@H](CCC(=O)O)NC(=O)C(C)(C)NC(=O)[C@@H](N)Cc1ccc(O)cc1)[C@@H](C)CC)C(=O)N[C@@H](C)C(=O)N[C@@H](CCSC)C(=O)N[C@@H](CC(=O)O)C(=O)N[C@@H](CCCCN)C(=O)N[C@H](C(=O)N[C@@H](Cc1c[nH]cn1)C(=O)N[C@@H](CCC(N)=O)C(=O)N[C@@H](CCC(N)=O)C(=O)N[C@@H](CC(=O)O)C(=O)N[C@@H](Cc1ccccc1)C(=O)N[C@H](C(=O)N[C@@H](CC(N)=O)C(=O)N[C@@H](Cc1c[nH]c2ccccc12)C(=O)N[C@@H](CC(C)C)C(=O)N[C@@H](CC(C)C)C(=O)N[C@@H](C)C(=O)N[C@@H](CCC(N)=O)C(=O)N[C@@H](CCCCN)C(N)=O)C(C)C)[C@@H](C)CC [Example 15, (Aib^2, 5)hGIP(1-30)-NH2]",46.5 h,28.6 h
"CC[C@H](C)[C@H](NC(=O)[C@H](CO)NC(=O)[C@H](Cc1ccc(O)cc1)NC(=O)[C@H](CC(=O)O)NC(=O)[C@H](CO)NC(=O)C(C)(C)NC(=O)[C@H](Cc1ccccc1)NC(=O)[C@@H](NC(=O)CNC(=O)[C@H](CCC(=O)O)NC(=O)C(C)(C)NC(=O)[C@@H](N)Cc1ccc(O)cc1)[C@@H](C)O)C(=O)N[C@@H](C)C(=O)N[C@@H](CCSC)C(=O)N[C@@H](CC(=O)O)C(=O)N[C@@H](CCCCN)C(=O)N[C@H](C(=O)N[C@@H](Cc1c[nH]cn1)C(=O)N[C@@H](CCC(N)=O)C(=O)N[C@@H](CCC(N)=O)C(=O)N[C@@H](CC(=O)O)C(=O)N[C@@H](Cc1ccccc1)C(=O)N[C@H](C(=O)N[C@@H](CC(N)=O)C(=O)N[C@@H](Cc1c[nH]c2ccccc12)C(=O)N[C@@H](CC(C)C)C(=O)N[C@@H](CC(C)C)C(=O)N[C@@H](C)C(=O)N[C@@H](CCC(N)=O)C(=O)N[C@@H](CCCCN)C(N)=O)C(C)C)[C@@H](C)CC [Example 16, (Aib^2, 7)hGIP(1-30)-NH2]",> 48 h,43.9 h
"CC[C@H](C)[C@H](NC(=O)[C@H](CO)NC(=O)[C@H](Cc1ccc(O)cc1)NC(=O)C(C)(C)NC(=O)[C@H](CO)NC(=O)[C@@H](NC(=O)[C@H](Cc1ccccc1)NC(=O)[C@@H](NC(=O)CNC(=O)[C@H](CCC(=O)O)NC(=O)C(C)(C)NC(=O)[C@@H](N)Cc1ccc(O)cc1)[C@@H](C)O)[C@@H](C)CC)C(=O)N[C@@H](C)C(=O)N[C@@H](CCSC)C(=O)N[C@@H](CC(=O)O)C(=O)N[C@@H](CCCCN)C(=O)N[C@H](C(=O)N[C@@H](Cc1c[nH]cn1)C(=O)N[C@@H](CCC(N)=O)C(=O)N[C@@H](CCC(N)=O)C(=O)N[C@@H](CC(=O)O)C(=O)N[C@@H](Cc1ccccc1)C(=O)N[C@H](C(=O)N[C@@H](CC(N)=O)C(=O)N[C@@H](Cc1c[nH]c2ccccc12)C(=O)N[C@@H](CC(C)C)C(=O)N[C@@H](CC(C)C)C(=O)N[C@@H](C)C(=O)N[C@@H](CCC(N)=O)C(=O)N[C@@H](CCCCN)C(N)=O)C(C)C)[C@@H](C)CC [Example 18, (Aib^2, 9)hGIP(1-30)-NH2] (H-Y[Aib]EGTFIS[Aib]YSIAMDKIHQQDFVNWLLAQK-NH2; N-terminus assumed)",44.4 h,11.3 h
"CC[C@H](C)[C@H](NC(=O)[C@H](CCCCN)NC(=O)[C@H](CC(=O)O)NC(=O)[C@H](CCSC)NC(=O)[C@H](C)NC(=O)[C@@H](NC(=O)C(C)(C)NC(=O)[C@H](Cc1ccc(O)cc1)NC(=O)[C@H](CC(=O)O)NC(=O)[C@H](CO)NC(=O)[C@@H](NC(=O)[C@H](Cc1ccccc1)NC(=O)[C@@H](NC(=O)CNC(=O)[C@H](CCC(=O)O)NC(=O)C(C)(C)NC(=O)[C@@H](N)Cc1ccc(O)cc1)[C@@H](C)O)[C@@H](C)CC)[C@@H](C)CC)C(=O)N[C@@H](Cc1c[nH]cn1)C(=O)N[C@@H](CCC(N)=O)C(=O)N[C@@H](CCC(N)=O)C(=O)N[C@@H](CC(=O)O)C(=O)N[C@@H](Cc1ccccc1)C(=O)N[C@H](C(=O)N[C@@H](CC(N)=O)C(=O)N[C@@H](Cc1c[nH]c2ccccc12)C(=O)N[C@@H](CC(C)C)C(=O)N[C@@H](CC(C)C)C(=O)N[C@@H](C)C(=O)N[C@@H](CCC(N)=O)C(=O)N[C@@H](CCCCN)C(N)=O)C(C)C [Example 19, (Aib^2, 11)hGIP(1-30)-NH2] (H-Y[Aib]EGTFISDY[Aib]IAMDKIHQQDFVNWLLAQK-NH2; N-terminus assumed)",> 48 h,27.2 h
"Y[Aib]EGTF[Ac6c]SDYSIAMDKIHQQDFVNWLLAQKGKKNDWKHC(X1)ITQ-OH [Example 79, [Aib^2, A6c^7, Cys(Psu)^39]hGIP(1-42)-OH]",14.3 h,–
